From patent publication US6462040B1, “Cis-substituted aminocyclopropane derivative” (Daiicho Pharmaceutical Co., Ltd., priority 1996, dated 2002)
Converted amounts (≈) assume the structure as drawn.

What was measured:
Assay in all cases: Antimicrobial activity, MIC (standard method of the Japan Chemotherapeutic Society)
Format in all cases: cell-based
Str. pyogenes, G-36 = system: Str. pyogenes, G-36
Description: (§1) The present invention will further be illustrated in greater detail by way of Examples and Reference Examples, but the present invention should not be construed as being limited thereto. The antimicrobial activity of the compounds prepared was examined in accordance with the standard method specified by the Japan Chemotherapeutic Society, and the results obtained were expressed in terms of minimum inhibitory concentration (MIC; μg/ml).

S. aureus, 870307 = system: S. aureus, 870307
Description: as §1

S. aureaus, 209P = system: S. aureaus, 209P
Description: as §1

Pr. vulgaris, 08601 = system: Pr. vulgaris, 08601
Description: as §1

E. coli, NIHJ = system: E. coli, NIHJ
Description: as §1

S. epidermidis, 56500 = system: S. epidermidis, 56500
Description: as §1

Ps. aeruginosa, 32121 = system: Ps. aeruginosa, 32121
Description: as §1

Ps. aeruginosa, 32104 = system: Ps. aeruginosa, 32104
Description: as §1

[1] = system: Ps. maltophilia, IID-1275
Description: as §1

[2] = system: Str. faecalis, ATCC-19433
Description: as §1

S. flexneli, 2A 5503 = system: S. flexneli, 2A 5503
Description: as §1

Pr. mirabilis, IFO-3849 = system: Pr. mirabilis, IFO-3849
Description: as §1

Ser. marcescens, 10100 = system: Ser. marcescens, 10100
Description: as §1

## Cc1c(N2CCC([C@@H]3C[C@@H]3N)C2)c(F)c(N)c2c(=O)c(C(=O)O)cn([C@@H]3C[C@@H]3F)c12 (single isomer, unassigned; isomer b) [Example 3]
Str. pyogenes, G-36
  MIC: 0.006 µg/mL (≈ 0.0143 µM)
S. aureus, 870307
  MIC: 0.025 µg/mL (≈ 0.0597 µM)
S. aureaus, 209P
  MIC: ≦0.003 μg/ml
Pr. vulgaris, 08601
  MIC: 0.05 µg/mL (≈ 0.119 µM)
E. coli, NIHJ
  MIC: ≦0.003 μg/ml
S. epidermidis, 56500
  MIC: 0.006 µg/mL (≈ 0.0143 µM)
Ps. aeruginosa, 32121
  MIC: 0.10 µg/mL (≈ 0.239 µM)
Ps. aeruginosa, 32104
  MIC: 0.20 µg/mL (≈ 0.478 µM)
[1]
  MIC: 0.05 µg/mL (≈ 0.119 µM)
[2]
  MIC: 0.025 µg/mL (≈ 0.0597 µM)
S. flexneli, 2A 5503
  MIC: ≦0.003 μg/ml
Pr. mirabilis, IFO-3849
  MIC: 0.05 µg/mL (≈ 0.119 µM)
Ser. marcescens, 10100
  MIC: 0.10 µg/mL (≈ 0.239 µM)
